The results in this text go back to patent US20170138969A1, “System And Method For Measuring Permeability Of Drugs/Toxic/Chemical Compounds” (Indian Institute Of Technology Madras, priority 2014, published 2017).

The nature of this series: Membrane integrity test in lipid monolayer (LB) PAMPA system. Format: in vitro ADME. On the procedure:
FIG. 3-4 illustrates graphs 300-400 illustrating the membrane integrity test, in accordance with the disclosed embodiments. The membrane integrity test can be performed according to the standard protocol. An 80 μl aqueous solution containing Lucifer yellow (LY) and Brilliant Cresyl Blue (BCB) in the ratio 1:9 is added into the donor well. The PAMPA system can be assembled and incubated for 5 hours at 25° C. The acceptor plate and donor well are separated and concentration of LY and BCB was analyzed by measuring; Fluorescence: Excitation wavelength @428 mn; Emission wavelength @525 nm; Absorbance; at 610 nm for BCB.
FIG. 3 illustrates the graph 300 showing the permeation of BCB as 0.045; Absorbance units after 5 hours of incubation indicating the presence of integral membrane. Similarly, the graph 400 illustrates the rejection of Lucifer Yellow after 5 hours of incubation indicating the presence of integral membrane. The rejection of Lucifer yellow indicates the presence of an integral membrane.
A general note: In PAMPA a lipid-coated filter parts donor from acceptor wells.

As for Lucifer yellow, the “permeation/rejection of Lucifer Yellow (fluorescence, excitation 428 / emission 525 nm)” value (LY:BCB 1:9 aqueous solution, 80 μl in donor well, after 5 hours of incubation at 25° C.) was “rejection”. In the case of Brilliant Cresyl Blue [BCB], the “permeation of BCB (absorbance at 610 nm, acceptor)” value (PAMPA) came to 0.045 Absorbance units.
